Measured values reported in patent US20100204265A1 (priority 2009, published 2010).

Assays:
[1] = patients treated at currently recommended doses; cited from earlier work
[2] = test system: ET (Huh-lucubineo-ET) cell line harboring I389luc-ubi-neo/NS3-3′/ET HCV replicon; experiment: Replicon assay (HCV replicon, luciferase readout); format: cell-based; conditions: Hepatitis C virus
Method in brief: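 Compounds at 10-point 2-fold dilutions (overall 0.1 nM to […], 0.5% DMSO) were applied to ET cells carrying a luciferase-neo HCV replicon, seeded a day earlier. After 48-72 hours, luciferase-based % inhibition was fitted with a Hill equation for EC50, and parallel WST-1 readings gave TC50.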

SMILES: NC(=O)c1ncn([C@@H]2O[C@H](CO)[C@@H](O)[C@H]2O)n1 [Ribavirin, 1-P-D-ribofuranosyl-1H-1,2,-4-triazole-3-carboxamide]
- significant hemolysis, share of patients [1]: 10-20%

SMILES: O=C(c1nc2c(C(F)(F)F)cc(-c3ccoc3)cn2c1Cl)N1CCC(n2ccnc2)CC1 [Compound 197, (3-Chloro-6-furan-3-yl-8-trifluoromethyl-imidazo[1,2-a]pyridin-2-yl)-(4-imidazol-1-yl-piperidin-1-yl)-methanone]
- EC50 [2]: 3.5 µM

SMILES: FC(F)(F)c1cc(-c2ccoc2)cn2cc(Cc3nc(COc4ccccc4)no3)nc12 [Compound 231, 6-Furan-3-yl-2-(3-phenoxymethyl-[1,2,4]oxadiazol-5-ylmethyl)-8-trifluoromethyl-imidazo[1,2-a]pyridine]
- EC50 [2]: > 50 µM

SMILES: C=CC(=O)N[C@@H]1CCN(C(=O)c2nc3c(C(F)(F)F)cc(-c4ccoc4)cn3c2Cl)C1 [Compound 167, N-[1-(3-Chloro-6-furan-3-yl-8-trifluoromethyl-imidazo[1,2-a]pyridine-2-carbonyl)-pyrrolidin-3-yl]-acrylamide]
- EC50 [2]: 1.68 µM

SMILES: N#Cc1cccnc1C1=CCN(C(=O)c2nc3c(C(F)(F)F)cc(-c4ccoc4)cn3c2Cl)CC1 [Compound 211, 1′-(3-Chloro-6-furan-3-yl-8-trifluoromethyl-imidazo[1,2-a]pyridine-2-carbonyl)-1′,2′,3′,6′-tetrahydro-[2,4′]bipyridinyl-3-carbonitrile]
- EC50 [2]: 1.48 µM
